US6939968B2, “Atropisomers of 3-substituted-4-arylquinolin-2-one derivatives” (Bristol-Myers Squibb Company, priority 2002, dated 2005)
Where “and” joins values, the source holds several entries; their conditions need not be identical. Identical values can stand only once.

Legend:
[1] = system: stress-induced colonic motility (fecal pellet output); assay: Air jet stress-induced colonic motor activity; format: in vivo; conditions: rats, 20 mg/kg ip
Method: Environmental stress is believed to play a role in irritable bowel syndrome and other altered bowel motility states. […] Based on this, we tested the hypothesis that maxi-K^+potassium channel openers of the present invention can be effective in reducing stress-induced acceleration in colonic motility, as indexed by fecal pellet output.
Rats were randomly divided into 2 groups and treated with vehicle (polyethylene glycol (400 grams per mole), 1 mL/kg, ip) or the compound of Example 1 in racemate form (20 mg/kg) at time zero. At 1.5 hr post-treatment, each rat was partially restrained in plexiglas container and was subjected to air-jet stress. This was brought about by exposing each of the partially-restrained animals to 3-4 episodes of 2 minute long air jets with an interval of 8-10 minutes between episodes. The fecal output was collected and the wet weight was recorded. The data were analyzed by combining individual output within each group to calculate a group mean and the means were compared using a statistical test (unpaired, two-tailed t-test; p<0.05).

[2] = system: cloned mammalian (mSlo or hSlo) BK channels heterologously expressed in Xenopus oocytes; assay: BK-mediated outward current in Xenopus oocytes, two-electrode voltage clamp; format: cell-based; conditions: for Current: compounds at 10 μM, IBTX at supramaximal concentration (50-100 nM); for BK Current: at 10 μM, percent increase over BK current in controls, voltage step to +140 mV, IBTX-sensitive current
Method: The ability of the compounds of the invention to open BK channels and increase whole-cell outward (K+) BK-mediated currents was assessed under voltage-clamp conditions by determining their ability to increase cloned mammalian (mSlo or hSlo) BK—mediated outward current heterologously expressed in Xenopus oocytes [Butler, A., et al., Science, 261: 221-224 (1993); Dworetzky, S. I., et al., Mol. Brain Res., 27: 189-193 (1994); Gribkoff, V. K., et al., Mol. Pharmacol., 50:206-217 (1996)]. The two BK constructs employed represent nearly structurally identical homologous proteins, and have proven to be pharmacologically indistinguishable in our tests. To isolate BK current from native (background, non-BK) current, the specific and potent BK channel-blocking toxin iberiotoxin (IBTX) [Galvez, A., et al., J. Biol. Chem., 265: 11083-11090 (1990)] was employed at a supramaximal concentration, e.g., 50-100 nanomolar (“nM”). The relative contribution of BK channel-mediated current to total outward current was determined by subtraction of the current remaining in the presence of IBTX (non-BK current) from the current profiles obtained in all other experimental conditions (control, drug, and wash) [Gribkoff, V. K. et al., Mol. Pharmacol., 50:206-217 (1996)]. […] All compounds were tested in 5-10 oocytes and are reported at the indicated concentration of 10 micromolar (“μM”); the effect of the selected compounds of the invention on BK current was expressed as the percent of control IBTX-sensitive current at a single transmembrane voltage (+140 mV) and is listed in Table 1. Recordings were accomplished using standard two-electrode voltage clamp techniques [Stuhmer, W., et al., Methods in Enzymology, Vol. 207: 319-339 (1992)]; voltage-clamp protocols consisted of 500-750 milliseconds (“ms”) duration step depolarizations, from a holding potential of −60 mV, to a final voltage up to +140 mV in 20 mV steps. Table 2 lists the current-voltage (I-V) data for two compounds of the invention, applied to oocytes at a concentration of 10 μM. The experimental media (modified Barth's solution) consisted of millimolar (“mM”): NaCl (88), NaHCO3 (2.4), KCl (1.0), HEPES (10), MgSO4 (0.82), Ca(NO3)2 (0.33), CaCl2 (0.41); pH 7.5.

Compound | fecal output (wet weight, group mean) ([1]; air-jet stress 1.5 hr post-treatment, vehicle group 0.37 grams) [grams] | animals showing a defecatory response to air-jet ([1]; vehicle group 9/12) | Current ([2]; voltage 0 mV) [μA] | Current ([2]; voltage 20 mV) [μA] | Current ([2]; voltage 40 mV) [μA] | Current ([2]; voltage 60 mV) [μA] | Current ([2]; voltage 80 mV) [μA] | Current ([2]; voltage 100 mV) [μA] | Current ([2]; voltage 120 mV) [μA] | Current ([2]; voltage 140 mV) [μA] | Current ([2]; voltage −20 mV) [μA] | Current ([2]; voltage −40 mV) [μA] | BK Current ([2]; listed as 3-atropisomer A) [%] | BK Current ([2]; listed as 3-atropisomer B) [%] | BK Current [2]
O=c1[nH]c2ccc(C(F)(F)F)cc2c(-c2cc(Cl)ccc2O)c1CCO (racemic) [Example 1, 4-(5-Chloro-2-hydroxyphenyl)-3-(2-hydroxyethyl)-6 (trifluoromethyl)-2(1H)-Quinolinone] | 0.03 | 3 out of 11 | 0.2 | 0.7 | 1.8 | 3.3 | 4.9 | 6.6 | 8.4 | 10.2 | 0 | 0 | – | – | –
O=c1[nH]c2ccc(C(F)(F)F)cc2c(-c2cc(Cl)ccc2O)c1CCO (single isomer, unassigned) [Example 3-atropisomer A, (−) 4-(5-Chloro-2-hydroxy-phenyl)-3-(2-hydroxy-ethyl)-6-trifluoromethyl-1H-quinolin2-one] | – | – | – | – | – | – | – | – | – | – | – | – | 291.8 ± 26.8 | – | –
O=c1[nH]c2ccc(C(F)(F)F)cc2c(-c2cc(Cl)ccc2O)c1CCO (single isomer, unassigned) [Example 3-atropisomer B, (+) 4-(5-Chloro-2-hydroxy-phenyl)-3-(2-hydroxy-ethyl)-6-trifluoromethyl-1H-quinolin2-one] | – | – | – | – | – | – | – | – | – | – | – | – | – | 213.9 ± 21.4 | –
Cn1c(=O)c(CCO)c(-c2cc(Cl)ccc2O)c2cc(C(F)(F)F)ccc21 (single isomer, unassigned) [Example 5-atropisomer A, (−) 4-(5-Chloro-2-hydroxy-phenyl)-1-methyl-3-(2-hydroxy-ethyl)-6-trifluoromethyl-1H-quinolin2-one] | – | – | – | – | – | – | – | – | – | – | – | – | – | – | 360.8 ± 29.6% and 183.6 ± 9.50%
Cn1c(=O)c(CCO)c(-c2cc(Cl)ccc2O)c2cc(C(F)(F)F)ccc21 [Example 2] | – | – | 0 | 0 | 0.2 | 0.6 | 1.4 | 2.5 | 3.9 | 5.6 | 0 | 0 | – | – | –
iberiotoxin (QFTDVDCSVSKECWSVCKDLFGVDRGKCMGKKCRCYQ; UniProt P24663 1-37, looked up) [IBTX, reference compound] | – | – | 0 | 0 | 0 | 0 | 0.1 | 0.2 | 0.6 | 1.2 | 0 | 0 | – | – | –
